Reference: PubChem BioAssay AID328 (DTP/NCI, 2004)
Several values for one entry are separate records, joined by “and”; a condition that tells them apart may be missing. Identical values can stand only once. Toxic doses and inconclusive results are not listed.

Tested on: BDF1 mice, P388 leukemia ip, median survival T/C
Experiment: NCI In Vivo Anticancer Drug Screen. Data for tumor model P388 Leukemia (intraperitoneal) in B6D2F1 (BDF1) mice
Details: endpoint: median survival time, higher = longer survival
Procedure, shortened: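 Antitumour effect was judged in vivo: survival in drug-treated mice, normalised to that of vehicle-dosed controls, gives the reported T/C.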

[1] = dose: 100.0 mg/kg/injection, schedule: Q01DX009 (ip), vehicle: saline with Tween-80
[2] = dose: 100.0 mg/kg/injection, schedule: Q04DX003 (ip), vehicle: saline with Tween-80
[3] = dose: 200.0 mg/kg/injection, schedule: Q01DX009 (ip), vehicle: saline with Tween-80
[4] = dose: 200.0 mg/kg/injection, schedule: Q04DX003 (ip), vehicle: saline with Tween-80
[5] = dose: 400.0 mg/kg/injection, schedule: Q04DX003 (ip), vehicle: saline with Tween-80
[6] = dose: 50.0 mg/kg/injection, schedule: Q01DX009 (ip), vehicle: saline with Tween-80
[7] = dose: 50.0 mg/kg/injection, schedule: Q04DX003 (ip), vehicle: saline with Tween-80

In the case of `C(=N\n1cnnc1)/c1ccc(/C=N/n2cnnc2)cc1`, the T/C (dose: 100.0 mg/kg/injection, schedule: Q01DX001 (ip), vehicle: saline) is reported as 118 % of control, the T/C (dose: 200.0 mg/kg/injection, schedule: Q01DX001 (ip), vehicle: saline) is reported as 104 % of control and the T/C (dose: 400.0 mg/kg/injection, schedule: Q01DX001 (ip), vehicle: saline) is reported as 95 % of control.

With `CC(C)CCC[C@@H](C)[C@H]1CC[C@H]2[C@@H]3CC=C4C[C@@H](Cl)CC[C@]4(C)[C@H]3CC[C@]12C` the T/C (dose: 50.0 mg/kg/injection, schedule: Q04DX003 (sc), vehicle: Klucel (hydroxypropylcellulose) (HPC)) was 95 % of control, the T/C (dose: 100.0 mg/kg/injection, schedule: Q04DX003 (sc), vehicle: Klucel (hydroxypropylcellulose) (HPC)) was 104 % of control and the T/C (dose: 200.0 mg/kg/injection, schedule: Q04DX003 (sc), vehicle: Klucel (hydroxypropylcellulose) (HPC)) was 95 % of control.

`COc1ccc(NC2=CC(C)(C(=O)O)OC2=O)cc1` (stereo not drawn) was tested, and the T/C [1] was 100 % of control, the T/C [2] was 100 % of control and the T/C [3] was 91 % of control. For the same compound, the T/C [4] was 110 % of control, the T/C (dose: 400.0 mg/kg/injection, schedule: Q01DX009 (ip), vehicle: saline with Tween-80) was 108 % of control and the T/C [5] was 115 % of control.

For `O=C(CN1CC1)NCCCCCCCCNC(=O)CN1CC1`, the T/C (dose: 12.5 mg/kg/injection, schedule: Q01DX009 (ip), vehicle: saline with Tween-80) was 200 % of control, the T/C (dose: 25.0 mg/kg/injection, schedule: Q01DX009 (ip), vehicle: saline with Tween-80) was 259 % of control and the T/C (dose: 33.0 mg/kg/injection, schedule: Q04DX003 (ip), vehicle: saline with Tween-80) was 190 % of control. The T/C [6] was 86 % of control, the T/C [7] was 209 % of control and the T/C (dose: 75.0 mg/kg/injection, schedule: Q04DX003 (ip), vehicle: saline with Tween-80) was 245 % of control.

`O=C(CCl)c1ccc[nH]1` was tested, and the T/C (dose: 25.0 mg/kg/injection, schedule: Q04DX003 (ip), vehicle: Klucel (hydroxypropylcellulose) (HPC)) was 95 % of control and the T/C (dose: 50.0 mg/kg/injection, schedule: Q04DX003 (ip), vehicle: Klucel (hydroxypropylcellulose) (HPC)) was 91 % of control.

In the case of `c1nc(SC2CCCC2)c2[nH]cnc2n1`, the T/C [1] is reported as 100 % of control and the T/C [3] is reported as 116 % of control.

For `O=C(C(=O)c1ccc(Cl)cc1)c1ccc(Cl)cc1`, the T/C (dose: 12.5 mg/kg/injection, schedule: Q04DX003 (ip), vehicle: other) was 100 % of control and the T/C (dose: 25.0 mg/kg/injection, schedule: Q04DX003 (ip), vehicle: other) was 86 % of control.

In the case of `C=CCc1ccccc1CNC(C)(C)CO`, the T/C [6] is reported as 103 % of control and the T/C [1] is reported as 103 % of control.

For `CCCCCCCCCCCCCCCCCS(=O)S(=O)O` (stereo not drawn), the T/C (dose: 89.0 mg/kg/injection, schedule: Q01DX009 (ip), vehicle: saline with Tween-80) was 116 % of control, the T/C (dose: 100.0 mg/kg/injection, schedule: Q01DX009 (ip), vehicle: Klucel (hydroxypropylcellulose) (HPC)) was 116 % of control and the T/C (dose: 132.0 mg/kg/injection, schedule: Q01DX009 (ip), vehicle: Klucel (hydroxypropylcellulose) (HPC)) was 109 % of control. The T/C (dose: 200.0 mg/kg/injection, schedule: Q01DX009 (ip), vehicle: Klucel (hydroxypropylcellulose) (HPC)) was 119 % of control and the T/C (dose: 300.0 mg/kg/injection, schedule: Q01DX009 (ip), vehicle: Klucel (hydroxypropylcellulose) (HPC)) was 122 % of control.

With `N=c1ccn2c(n1)OC1C(O)C(CO)OC12` (stereo not drawn) the T/C (dose: 39.0 mg/kg/injection, schedule: Q01DX008 (ip), vehicle: water) was 173 % of control, the T/C (dose: 65.0 mg/kg/injection, schedule: Q01DX008 (ip), vehicle: water) was 99 % of control and the T/C (dose: 108.0 mg/kg/injection, schedule: Q01DX008 (ip), vehicle: water) was 224 % of control. The T/C (dose: 180.0 mg/kg/injection, schedule: Q01DX008 (ip), vehicle: water) was 207 % of control, the T/C (dose: 300.0 mg/kg/injection, schedule: Q01DX008 (ip), vehicle: water) was 213 % of control and the T/C (dose: 500.0 mg/kg/injection, schedule: Q01DX008 (ip), vehicle: water) was 225 % of control.

For `[O-][n+]1ccc(Cl)c2ccsc21`, the T/C [7] was 95 % of control, the T/C [2] was 95 % of control and the T/C [4] was 90 % of control and 104 % of control. The T/C [5] was 86 % of control.

In the case of `CC(O)C(O)C(N)CC=O` (stereo not drawn), the T/C (dose: 1.25 mg/kg/injection, schedule: Q01DX001 (ip), vehicle: saline) is reported as 100 % of control and 110 % of control, the T/C (dose: 2.5 mg/kg/injection, schedule: Q01DX001 (ip), vehicle: saline) is reported as 100 % of control and 110 % of control and the T/C (dose: 5.0 mg/kg/injection, schedule: Q01DX001 (ip), vehicle: saline) is reported as 100 % of control and 110 % of control. The T/C (dose: 10.0 mg/kg/injection, schedule: Q01DX001 (ip), vehicle: saline) was 100 % of control and 105 % of control.

`Cc1ccc(C)c(NC(=O)c2ccc(Cl)cc2Cl)c1` was tested, and the T/C (dose: 75.0 mg/kg/injection, schedule: Q01DX001 (ip), vehicle: other) was 90 % of control and the T/C (dose: 150.0 mg/kg/injection, schedule: Q01DX001 (ip), vehicle: other) was 90 % of control.

For `Clc1ccc(-c2nc(-c3ccccc3)c(-c3ccccc3)o2)cc1`, the T/C [6] was 100 % of control, the T/C [1] was 111 % of control and the T/C [3] was 116 % of control.

`CC(C)CCC[C@@H](C)[C@H]1CC[C@H]2[C@@H]3CC=C4C[C@@H](OC(=O)Cc5ccc(N(CCCl)CCCl)cc5)CC[C@]4(C)[C@H]3CC[C@]12C` was tested, and the T/C (dose: 6.25 mg/kg/injection, schedule: Q01DX010 (sc), vehicle: steriod suspending solution) was 87 % of control, the T/C (dose: 12.5 mg/kg/injection, schedule: Q01DX010 (sc), vehicle: steriod suspending solution) was 91 % of control and the T/C (dose: 25.0 mg/kg/injection, schedule: Q01DX010 (sc), vehicle: steriod suspending solution) was 91 % of control. For the same compound, the T/C (dose: 50.0 mg/kg/injection, schedule: Q01DX010 (oral), vehicle: steriod suspending solution) was 104 % of control, the T/C (dose: 50.0 mg/kg/injection, schedule: Q01DX010 (sc), vehicle: steriod suspending solution) was 92 % of control and the T/C (dose: 100.0 mg/kg/injection, schedule: Q01DX010 (oral), vehicle: steriod suspending solution) was 118 % of control. For the same compound, the T/C (dose: 100.0 mg/kg/injection, schedule: Q01DX010 (sc), vehicle: steriod suspending solution) was 111 % of control, the T/C (dose: 200.0 mg/kg/injection, schedule: Q01DX010 (sc), vehicle: steriod suspending solution) was 107 % of control and the T/C (dose: 400.0 mg/kg/injection, schedule: Q01DX010 (oral), vehicle: steriod suspending solution) was 172 % of control. For the same compound, the T/C (dose: 400.0 mg/kg/injection, schedule: Q01DX010 (sc), vehicle: steriod suspending solution) was 100 % of control and the T/C (dose: 800.0 mg/kg/injection, schedule: Q01DX010 (oral), vehicle: steriod suspending solution) was 118 % of control.

With `CN1COC(OC2CSC2)C(C)(C)C1` (stereo not drawn) the T/C [2] was 117 % of control, the T/C [4] was 114 % of control and the T/C [5] was 115 % of control.

With `CC(=O)C/C(C)=N/NC(=O)c1ccncc1` the T/C (dose: 150.0 mg/kg/injection, schedule: Q01DX009 (ip), vehicle: saline with Tween-80) was 90 % of control.

In the case of `Cc1ncc(/C=C/C(=O)O)c(C=O)c1O`, the T/C (dose: 6.25 mg/kg/injection, schedule: Q04DX003 (ip), vehicle: saline) is reported as 103 % of control, the T/C (dose: 12.5 mg/kg/injection, schedule: Q04DX003 (ip), vehicle: saline) is reported as 101 % of control and the T/C (dose: 25.0 mg/kg/injection, schedule: Q04DX003 (ip), vehicle: saline) is reported as 100 % of control.

In the case of `C[C@@H]1C[C@](O)([C@@H](C)Cl)C(=O)O[C@@H]2CCN3CC=C(COC(=O)[C@]1(C)O)[C@H]23`, the T/C (dose: 30.0 mg/kg/injection, schedule: Q01DX010 (ip), vehicle: saline) is reported as 105 % of control.

In the case of `C#CCOc1ccccc(Br)c1=O`, the T/C (dose: 50.0 mg/kg/injection, schedule: Q04DX002 (ip), vehicle: saline with Tween-80) is reported as 115 % of control, the T/C (dose: 100.0 mg/kg/injection, schedule: Q04DX002 (ip), vehicle: saline with Tween-80) is reported as 104 % of control and the T/C (dose: 200.0 mg/kg/injection, schedule: Q04DX002 (ip), vehicle: saline with Tween-80) is reported as 106 % of control.

For `CC1(C)C2CCC1(C)C1(C2)OC(CCl)CS1` (stereo not drawn), the T/C [6] was 90 % of control, the T/C [1] was 94 % of control and the T/C [3] was 108 % of control.

For `COc1cc(NC(N)=O)cc(OC)c1OC`, the T/C (dose: 18.75 mg/kg/injection, schedule: Q04DX003 (ip), vehicle: saline sonified) was 100 % of control, the T/C (dose: 37.5 mg/kg/injection, schedule: Q04DX003 (ip), vehicle: saline sonified) was 86 % of control and the T/C (dose: 75.0 mg/kg/injection, schedule: Q04DX003 (ip), vehicle: saline sonified) was 100 % of control.

For `COc1cc(C=NC(CO)C(=O)O)ccc1O.COc1cc(C=NC(CO)C(=O)O)ccc1O.[Fe]` (stereo not drawn), the T/C (dose: 100.0 mg/kg/injection, schedule: Q01DX009 (ip), vehicle: saline) was 100 % of control, the T/C (dose: 100.0 mg/kg/injection, schedule: Q04DX003 (ip), vehicle: saline) was 100 % of control and the T/C (dose: 200.0 mg/kg/injection, schedule: Q01DX009 (ip), vehicle: saline) was 100 % of control. The T/C (dose: 200.0 mg/kg/injection, schedule: Q04DX003 (ip), vehicle: saline) was 95 % of control and the T/C (dose: 400.0 mg/kg/injection, schedule: Q04DX003 (ip), vehicle: saline) was 95 % of control.
